Assay [1] deals with HT29 human colorectal cancer cell line. Put plainly: In vitro anti-cancer activity, HT29 human colorectal cancer cells. The settings on record: HT-29. It is filed as cell-based. As for the experimental part: (§1) The anti-cancer effect compound of formula (2) and compounds (3) and (4) were evaluated using the HT29 and Colo205 human colorectal cancer cell lines.
(§2) Human colorectal cancer cells HT29 and Colo205 were plated in a 96-well plate, at a concentration of 1×10^4-5 cells/well. The human colorectal cancer cells were incubated at 37° C. with 5% CO2 overnight. These cancer cells were washed three times with a serum free medium or a phosphate buffer solution (PBS) the next day. The compound of Formula (2) and Compounds (3) and (4) were added to the HT29 and Colo205 human colorectal cancer cells respectively. The experiment was performed three times and the average IC50 value was calculated.

Assay [2] deals with Colo205 human colorectal cancer cell line. Put plainly: In vitro anti-cancer activity, Colo205 human colorectal cancer cells. The assay is classed as cell-based. The following applies: COLO 205. As for the experimental part:
as §1, §2

Where [3] appears, read: HT29 human colorectal cancer cells, average of three experiments, FIG. 6, read-out: IC50.
Setting [4] is: Colo205 human colorectal cancer cells, average of three experiments, FIG. 7, read-out: IC50.

The structures appear in SMILES notation. pIC50: −log10 of the molar value. Like-named read-outs stand apart in the source and are kept apart here. A value given as a limit tells only on which side of the number the result lay.

In general, pIC50 refers to the IC50 on a negative log10 scale, so that one unit is a factor of ten. For `C=C(C)C#Cc1c(C)c(OC)c(OC)c(OC)c1OC` [compound (3)], the negative logarithm of the IC50 (pIC50) is 4.23 in assay [1] (Homo sapiens) and 4.38 in assay [2] (Homo sapiens).

As for `COc1cc(C)c(OC)c2c1OCO2` [Compound (4)], the pIC50 in assay [1] (setting [3]) and in assay [2] (setting [4]) was less than 4.00 in each case.

Regarding `C=C(C)C#Cc1c(C)c(OC)c2c(c1OC)OCO2` [formula (2), 1,2-methylenedioxy-3,6-bismethoxy-4-(3-methyl-3-alkene-1-butyne)-5-methylbenzene], the results for the negative-log IC50 (pIC50) in assay [1] (setting [3]) and in assay [2] (setting [4]) were 4.18 and 5.05, respectively.

The values above are taken from patent publication US8759549B2, “Compound extracted from Antrodia cinnamomea and pharmaceutical composition comprising the same” (priority 2010, dated 2014).
